Laboratory results published in patent publication US20240277890A1, “ANTIMICROBIAL ARTICLES COMPRISING POLYURETHANE” (Amicoat AS, priority 2021, published 2024).
≈ marks a conversion by molar mass, not a printed value. Where two headings read alike, the source gives them in different places. Peptide text beside a SMILES is read from it. * marks the point of attachment. NHPhenethyl = c1ccc(CCN*)cc1

Columns and labels:
[1] = system: Staphylococcus aureus, strain ATCC 25923
[2] = system: Methicillin resistant Staphylococcus aureus (MRSA) strain ATCC 33591
[3] = system: Methicillin resistant Staphylococcus epidermidis (MRSE) strain ATCC 27626
P. aeruginosa = details: Table 5
E. coli = details: Table 5
[4] = system: Clostridium difficile - antibiotic-susceptible clinical isolate; assay: MIC microbroth dilution (CLSI); assay type: cell-based; parameters: unit not given beside the values; details: C. difficile antibiotic-susceptible
Experimental: Supplemented Brucella broth (SBB) was used for the anaerobic strains with an inoculum of approximately 10^6 CFU/mL. SBB is a broth consisting of 1% peptone, 0.5% ‘Lab-lemco’, 1% glucose and 0.5% sodium chloride supplemented with 5 μg/L haemin and 1 μg/L vitamin K (both obtained from Sigma Aldrich Ltd.) Yeast and filamentous fungal MIC were performed in MOPS buffered RPMI 1640 medium (MOPS buffer obtained from Sigma Aldrich Ltd., RPMI 1640 obtained from Invitrogen Ltd, Paisley, Scotland). The yeast inocula were in the range 7.5×10^2-4×10^3 CFU/mL and the filamentous fungi approximately 8×10^3-1×10^5 CFU/mL.

[5] = system: Eggerthella lenta - ATCC 43055; assay: MIC microbroth dilution (CLSI), extra control strain; assay type: cell-based; parameters: unit not given here; details: E. lenta ATCC 43055; SBB
[6] = system: Salmonella sp - antibiotic-susceptible clinical isolate; assay: MIC microbroth dilution (CLSI); assay type: cell-based
[7] = system: Bacteroides fragilis - ATCC 25285; assay: MIC microbroth dilution (CLSI), extra control strain; assay type: cell-based; parameters: unit not given here; details: B. fragilis ATCC 25285; SBB
[8] = system: Salmonella sp - multi-drug resistant clinical isolate; assay: MIC microbroth dilution (CLSI); assay type: cell-based
[9] = system: Microsporum canis - G.R. Micro collection; details: M. canis
[10] = system: Staphylococcus aureus FDA486; assay: Murine skin infection model, one day topical treatment; assay type: in vivo, mice; details: cream or gel containing 2% (w/w) of compound; three topical treatments at three hourly intervals; compared to placebo
Experimental: (§1) The skin of mice was infected with Staphylococcus aureus or Streptococcus pyogenes and subsequently given a total of three treatments at three hourly intervals. Three hours after the last treatment, skin biopsies were collected and the number of colony forming units (CFUs) present in the skin sample was determined. Results are shown in FIGS. 3, 4 and 5 expressed as the number of colony forming units per mouse.

[11] = system: Streptococcus pyogenes CS301; assay: as above; assay type: in vivo, mice
Experimental: as §1

[12] = system: Haemophilus influenzae - ATCC 47247; assay: MIC microbroth dilution (CLSI), extra control strain; parameters: unit not given beside the values; details: H. influenzae ATCC 47247; plate type HTM
[13] = system: Pseudomonas aeruginosa ATCC27853 - antibiotic-susceptible type strain; parameters: MIC (repeat control strain): unit not given beside the values; details: P. aeruginosa ATCC 27853
[14] = system: Escherichia coli ATCC25922 - antibiotic-susceptible type strain; parameters: MIC (repeat control strain): unit not given beside the values; details: E. coli ATCC 25922
[15] = system: Staphylococcus aureus ATCC 29213 - antibiotic-susceptible control strain; parameters: MIC (repeat control strain): unit not given beside the values; details: S. aureus ATCC 29213
[16] = system: Candida parapsilosis ATCC 22019; assay: MIC microbroth dilution (CLSI), extra control strain; assay type: cell-based; parameters: unit not given here; details: C. parapsilosis ATCC 22019; RPMI 1640
[17] = system: Staphylococcus haemolyticus - antibiotic susceptible clinical isolate; details: S. haemolyticus antibiotic susceptible isolate
[18] = system: Enterococcus faecalis - ATCC 29212 antibiotic-susceptible control strain; parameters: MIC (repeat control strain): unit not given beside the values; details: E. faecalis ATCC 29212
[19] = system: Shigella sp - antibiotic-susceptible clinical isolate; assay: MIC microbroth dilution (CLSI); assay type: cell-based
trypsin = assay: in vitro; assay type: in vitro ADME; details: pH 8.6
Experimental: Each peptide was dissolved in a 0.1 M NH4HCO3 buffer (pH 6.5) to yield a final peptide concentration of 1 mg/ml. A trypsin solution was prepared by dissolving 1 mg of trypsin in 50 ml 0.1 M NH4HCO3 buffer (pH 8.2). For the stability determination, 250 μl freshly made trypsin solution and 250 μl peptide solution were incubated in 2 ml of 0.1 M NH4HCO3 buffer (pH 8.6) at 37° C. on a rocking table. Aliquots of 0.5 ml were sampled at different time intervals, diluted with 0.5 ml water:acetonitrile (60:40 v/v) containing 1% TFA and analysed by RP-HPLC as described above. Samples without trypsin addition taken at 0 h and after 20 h at 37° C. were used as negative controls. Integration of the peak area at 254 nm for samples taken during the first 5 hours of the assay was used to generate the τ1/2.

[20] = Staphylococcus aureus ATCC 25923

N=C(N)NCCC[C@H](NC(=O)[C@H](Cc1ccc(-c2ccc(-c3ccccc3)cc2)cc1)NC(=O)[C@@H](N)CCCNC(=N)N)C(=O)NCCc1ccccc1 [Compound 5]
MIC S. aureus [1, 20]: 5 µM (≈ 3.66 µg/mL)
MIC MRSA ([2]; MRSA ATCC 33591): 3 µM (≈ 2.2 µg/mL)
MIC MRSE ([3]; MRSE ATCC 27626): 3 µM (≈ 2.2 µg/mL)

CCCCCCCCCCCCCCCCNC(=O)[C@H](CCCNC(=N)N)NC(=O)[C@H](Cc1c(C(C)(C)C)[nH]c2c(C(C)(C)C)cc(C(C)(C)C)cc12)NC(=O)[C@@H](N)CCCNC(=N)N [Compound 11]
S. aureus (MIC) [1, 20]: 5 mg/L
P. aeruginosa (MIC) (P. aeruginosa): >100 mg/L
C. albicans (MIC) (C. albicans; Table 5): >100 mg/L
MRSA (MIC) ([2]; MRSA ATCC 33591): 4 mg/L
E. coli (MIC) (E. coli): >100 mg/L
S. pyogenes (MIC) (S. pyogenes; Table 5): 6 mg/L
MRSE (MIC) ([3]; MRSE ATCC 27626): 4 mg/L

N=C(N)NCCC[C@H](NC(=O)[C@H](Cc1c[nH]c2ccccc12)NC(=O)[C@@H](N)CCCNC(=N)N)C(=O)NCCc1ccccc1 [Compound 6, reference compound] (H-Arg-Trp-Arg-NHPhenethyl)
MIC S. aureus [1, 20]: 145 µM (≈ 89.9 µg/mL)
MIC MRSA ([2]; MRSA ATCC 33591): 97 µM (≈ 60.1 µg/mL)
MIC MRSE ([3]; MRSE ATCC 27626): 81 µM (≈ 50.2 µg/mL)

CCCNC(=O)[C@H](CCCNC(=N)N)NC(=O)[C@H](Cc1c(C(C)(C)C)[nH]c2c(C(C)(C)C)cc(C(C)(C)C)cc12)NC(=O)[C@@H](N)CCCNC(=N)N [Compound 10]
S. aureus (MIC) ([1]; ATCC 25923): 2 mg/L
C. albicans (MIC) (C. albicans): 10 mg/L
MRSA (MIC) ([2]; ATCC 33591): 3 mg/L
S. pyogenes (MIC) (S. pyogenes): 2 mg/L
MRSE (MIC) ([3]; ATCC 27626): <2 mg/L

CCCCNC(=O)[C@H](CCCNC(=N)N)NC(=O)[C@H](Cc1c(C(C)(C)C)[nH]c2c(C(C)(C)C)cc(C(C)(C)C)cc12)NC(=O)[C@@H](N)CCCNC(=N)N [Compound 9]
S. aureus (MIC) ([1]; ATCC 25923): 2 mg/L
C. albicans (MIC) (C. albicans): 10 mg/L
MRSA (MIC) ([2]; ATCC 33591): 3 mg/L
S. pyogenes (MIC) (S. pyogenes): 2 mg/L
MRSE (MIC) ([3]; ATCC 27626): <2 mg/L

CC(C)(C)c1cc(C(C)(C)C)c2[nH]c(C(C)(C)C)c(C[C@H](NC(=O)[C@@H](N)CCCNC(=N)N)C(=O)N[C@@H](CCCNC(=N)N)C(=O)NC3CCCCC3)c2c1 [Compound 13]
S. aureus (MIC) ([1]; ATCC 25923): <2 mg/L
C. albicans (MIC) (C. albicans): 10 mg/L
MRSA (MIC) ([2]; ATCC 33591): 2 mg/L
S. pyogenes (MIC) (S. pyogenes): <2 mg/L
MRSE (MIC) ([3]; ATCC 27626): 2 mg/L

N=C(N)NCCC[C@H](NC(=O)[C@H](Cc1ccc(-c2cccc3ccccc23)cc1)NC(=O)[C@@H](N)CCCNC(=N)N)C(=O)NCCc1ccccc1 [Compound 3]
MIC MRSA ([2]; MRSA ATCC 33591): 3 µM (≈ 2.12 µg/mL)
MIC MRSE ([3]; MRSE ATCC 27626): 3 µM (≈ 2.12 µg/mL)

CC(C)CNC(=O)[C@H](CCCNC(=N)N)NC(=O)[C@H](Cc1c(C(C)(C)C)[nH]c2c(C(C)(C)C)cc(C(C)(C)C)cc12)NC(=O)[C@@H](N)CCCNC(=N)N [Compound 12]
S. aureus (MIC) ([1]; ATCC 25923): <2 mg/L
C. albicans (MIC) (C. albicans): 10 mg/L
MRSA (MIC) ([2]; ATCC 33591): 3 mg/L
S. pyogenes (MIC) (S. pyogenes): 2 mg/L
MRSE (MIC) ([3]; ATCC 27626): 2 mg/L

CC(C)(C)c1cc(C(C)(C)C)c2[nH]c(C(C)(C)C)c(C[C@H](NC(=O)[C@@H](N)CCCNC(=N)N)C(=O)N[C@@H](CCCNC(=N)N)C(=O)NC3CCCC3)c2c1 [Compound 14]
S. aureus (MIC) ([1]; ATCC 25923): <2 mg/L
C. albicans (MIC) (C. albicans): 10 mg/L
S. pyogenes (MIC) (S. pyogenes): 2 mg/L
MRSE (MIC) ([3]; ATCC 27626): <2 mg/L

CC(C)(C)c1cc(C(C)(C)C)c2[nH]c(C(C)(C)C)c(CC(NC(=O)C(N)CCCNC(=N)N)C(=O)NC(CCCNC(=N)N)C(=O)NCCc3ccccc3)c2c1 (stereo not shown) [Compound 2]
MIC [4]: 16
MIC (control strain) [5]: 32
MIC [6]: 8
MIC (control strain) [7]: 64
MIC [8]: 8
MIC [9]: 8
number of CFUs in skin biopsy [10]: the number of CFUs was reduced
number of CFUs in skin biopsy ([11]; 1% or 2% gel, three topical treatments at three hourly intervals, compared to placebo gel and bactroban): more effective at reducing the number of CFUs than the placebo gel or the bactroban
number of CFUs in skin biopsy, 2% gel versus 1% gel ([11]; gel containing 2% compared to gel containing 1%): more effective than the gel containing only 1% of compound 2
MIC (control strain) [12]: 4
MIC (repeat control strain) ([13]; plate type Fresh MHB): 8
MIC (repeat control strain) ([13]; plate type Frozen MHB): 8
MIC (repeat control strain) ([14]; plate type Fresh MHB): 8
MIC (repeat control strain) ([14]; plate type Frozen MHB): 8
MIC (repeat control strain) ([15]; plate type Fresh MHB): 2
MIC (repeat control strain) ([15]; plate type Frozen MHB): 4
MIC (control strain) [16]: 8
MIC [17]: 4
MIC (repeat control strain) ([18]; plate type Fresh MHB): 4
MIC (repeat control strain) ([18]; plate type Frozen MHB): 8
MIC [19]: 8

N=C(N)NCCC[C@H](NC(=O)[C@H](Cc1ccc(-c2ccc3ccccc3c2)cc1)NC(=O)[C@@H](N)CCCNC(=N)N)C(=O)NCCc1ccccc1 [Compound 1]
MIC S. aureus [1, 20]: 4 µM (≈ 2.83 µg/mL)
half-life at 0.1 mg/ml (trypsin): > 24 h
MIC MRSA ([2]; MRSA ATCC 33591): <3 µM
MIC MRSE ([3]; MRSE ATCC 27626): <3 µM
